Source: patent US10864163B2, “Therapeutic agents and delivery with microspheres” (UCL Business PLC, priority 2013, dated 2020)
Entries after “also recorded” stand apart in the source; their conditions may differ.

Columns and labels:
[1] = Attachment of API (doxorubicin) to wetted and non-wetted TIPS microspheres; assay type: physicochemical; conditions: doxorubicin 0.5 mg/ml in water, overnight at room temperature, 150 rpm, centrifuged at 13000 rpm for 20 seconds
Protocol: 100 mg of TIPS microspheres was added to a 7 ml plastic container. The microspheres were wetted with 70% ethanol for 1 minute. The alcohol was removed and the microspheres washed with 5 ml deionised water. 1 ml of doxorubicin (0.5 mg/ml in water) was added to the container. The microspheres and doxorubicin solution were mixed by pipetting and incubated overnight at room temperature with agitation at 150 rpm on an orbital shaker. Control non-wetted microspheres were treated in the same manner. The microspheres were centrifuged at 13000 rpm for 20 seconds.

[2] = Release of API from doxorubicin-loaded wetted TIPS microspheres (FIG. 11d); assay type: physicochemical; conditions: doxorubicin attached to pre-wetted TIPS microspheres

Structure (SMILES): COc1cccc2c1C(=O)c1c(O)c3c(c(O)c1C2=O)C[C@@](O)(C(=O)CO)C[C@@H]3O[C@H]1C[C@H](N)[C@H](O)[C@H](C)O1 [doxorubicin]
- binding of doxorubicin to the surface of non-wetted, hydrophobic microspheres ([1]; control non-wetted microspheres): separated from the non-wetted samples; also recorded: does not bind to the surface of non-wetted, hydrophobic microspheres
- binding of doxorubicin to the surface of wetted TIPS microspheres ([1]; microspheres pre-wetted with 70% ethanol): remained bound to the surface of the wetted microspheres; also recorded: binds well to the surface of pre-wetted TIPS microspheres
- release of the API from wetted TIPS microspheres [2]: controlled release of the API is observed over a prolonged period
